Experimental findings from patent US20030077653A1, “Method for the identification of active site protease inactivators” (The University of Georgia Research Foundation, Inc., priority 2000, published 2003) are described below.

Assay [1] deals with T solium purified cysteine protease. Briefly: Human IgG degradation assay (western blot; Step IV). The format is biochemical, Taenia solium. The note with it: 18 hrs, 37° C. The procedure:
FIG.6. IgG degradation of heavy chain by purified cysteine protease of Taenia solium. human IgG was incubated for 18 hours with T. solium purified cysteine protease (CP). Incubated tubes were subsequently fractionated by SDS-PAGE under reducing conditions, blotted onto PVDF membrane, and visualized using biotinylated anti-IgG (heavy chain/light chain), biotin-peroxidase conjugated-strepavidin complex and enhanced chemiluminescence. Bands represent heavy chains.
To conduct this assessment, a western blot was performed. IgG digestion was detected by incubating 20 μl of T solium purified enzyme or T solium extract with 1 μg of human IgG (Sigma, St. Louis) in a fmal volume of 100 μl of assay buffer. Exogenous thiol activation was assessed by incubating the assay in the presence or absence of cysteine. The catalytic class of the IgG protease was determined by pre-incubating the following proteinase inhibitors at their active concentrations, with the enzyme: E 64 (10^−6 M, cysteine proteinases), phenylmethylsulfonyl fluoride (PMSF) (10^−3 M, serine proteinases), pepstatin A (10^−6 M, aspartic proteinases), and 1,10 phenanthroline (10^−3 M, metalloproteinases), and the vehicle, Mu-Leu-Tyr-AFC (10^−3 M). After addition of IgG, the assay was incubated overnight (37° C., 18 hrs). […]
A general note: In western blotting, separated proteins are transferred to a membrane and probed.

Assay [2] has as its target Cathepsin B (Homo sapiens, UniProt P07858). As to the kind of experiment: Differential cleavage (selectivity) test. It counts as biochemical. The note with it: vehicle 4×10^−5 M; pH 6.1, Z-ARR-AFC. Here is the method: (§1) In order to perform the assay, the vehicle (for Step VI) or inhibitor (for Step IX) were incubated with the appropriate substrate in the correct assay buffer and allowed to equilibrate. Subsequently, the protease was added, and the assay was allowed to incubate for an appropriate time. The concentrations used in this experiment were as follows: Vehicle was set up at 4×10^−5 M in final assay buffer; Inhibitor was set up at 3×10^−10 M in the final assay buffer. Accordingly, the dosages employed should be the minimal amount of vehicle or inhibitor necessary to induce inhibition. […] Substrates were set up based upon the preferred substrate for cleavage of the particular enzyme.
(§2) Positive controls were set up similarly as described for test controls, except that solvent was added in substitution for the inhibitor or vehicle (in a volume equal to the volume of inhibitor or vehicle addition). All of the inhibitors and vehicles could be dissolved in dimethylsulfoxide (DMSO), and therefore, this was the solvent of choice. Negative controls were set up by adding the inhibitor or vehicle and the preferred substrates in a tube without the protease. All potential non-proteolytic liberation of AFC was therefore controlled for in this tube (a feature which also insured stability of the AFC substrates, since these substrates will freely liberate AFC when unstable).
(§3) All controls were set up in triplicate, and experiments were repeated a minimum of five times.
(§4) Percent inhibition was calculated as: [formula]
(§5) In this preliminary test, we employed the following human-derived enzymes (with indicated mechanistic class): Cathepsin B (cysteine), Cathepsin L (cysteine), Cathepsin H (cysteine), Cathepsin D (aspartic) Trypsin (serine), the purified Taenia solium cysteine protease, and the Taenia solium crude mix. Cathepsin B was prepared in an assay buffer of 10 mM L-cysteine in 0.4 M Citrate buffer, pH 6. 1, using Z-ARR-AFC as the cleavage substrate. Cathepsin L was prepared in an assay buffer of 10 mM L-cysteine in 0.4 M Citrate buffer, pH 5.5, using Z-FR-AFC as the cleavage substrate. Cathepsin H was prepared in an assay buffer of 10 mM L-cysteine in 0.15 M PBS buffer, pH 6.8, using L- R-AFC as the cleavage substrate. Cathepsin D was prepared in an assay buffer of 0.15 M PBS, pH 7.1, using Z-RGFFP-AFC as the cleavage substrate. Trypsin was prepared in an assay buffer of 0.15 M PBS, pH 8.0, supplemented with 100 mM CaCl2 and with Z-R-AFC as the cleavage substrate. Enzyme was incubated so that it was at least 50 times less than the concentration of substrate in order to insure saturating conditions.

Assay [3] addresses Cathepsin D (Homo sapiens, UniProt P07339). As to the kind of experiment: Differential cleavage (selectivity) test. The format is biochemical. The note with it: vehicle 4×10^−5 M; pH 7.1, Z-RGFFP-AFC. The procedure: as §1, §2, §3, §4, §5
Assay [4] concerns the target T1, Cathepsin H (Homo sapiens, UniProt P09668).
T1 sequence (P09668 98-335): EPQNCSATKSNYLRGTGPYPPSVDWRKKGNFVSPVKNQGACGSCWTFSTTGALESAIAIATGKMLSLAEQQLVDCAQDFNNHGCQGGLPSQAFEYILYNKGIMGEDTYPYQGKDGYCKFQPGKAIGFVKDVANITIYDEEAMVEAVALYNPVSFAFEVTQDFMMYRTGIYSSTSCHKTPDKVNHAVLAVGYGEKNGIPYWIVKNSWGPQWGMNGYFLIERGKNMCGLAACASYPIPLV
Briefly: Differential cleavage (selectivity) test. The note with it: vehicle 4×10^−5 M; pH 6.8, L-R-AFC. The format is biochemical. The procedure: as §1, §2, §3, §4, §5

The target in assay [5] is Cathepsin L (Homo sapiens, UniProt P07711). Briefly: Differential cleavage (selectivity) test. The format is biochemical. The note with it: vehicle 4×10^−5 M; pH 5.5, Z-FR-AFC. The procedure:
as §1, §2, §3, §4, §5

The test system of assay [6] is Trypsin. As to the kind of experiment: Differential cleavage (selectivity) test. It counts as biochemical, human. The note with it: vehicle 4×10^−5 M; pH 8.0, Z-R-AFC. Here is the method:
as §1, §2, §3, §4, §5

Assay [7] deals with purified Taenia solium cysteine protease. As to the kind of experiment: Screen of AFC-linked synthetic substrates for cleavage (Step II). It counts as biochemical. The note with it: pH 4.9, 18 h, 37° C. Here is the method: In this step, the most efficacious substrate for detection of the cysteine protease (high Kcat substrate) was determined in vitro along with those substrates which were not well cleaved (low kcat substrates). From this point forth, the following conditions refer to all assays: “assay buffer” refers to 0.4 M Citrate, pH 4.9 (the pH optima of the protease). Incubation time was 18 hours at 37° C. These conditions were determined by our preliminary data to be best for kinetic evaluation of the protease. […] The experiments were conducted in […] Borosilicate mini-culture tubes (Fisher Scientific), and a fluorometer (Turner) was employed for detection of AFC cleavage.
Approximately 1 ug (or a proteolytically detectable amount) of the purified target cysteine protease was incubated individually, with 1 μg of each of the available substrates in 500 μL of assay buffer. During this setup, the substrate was pre-incubated in the assay buffer for a short period of time (20 minutes) in order to reach an equilibrated status before the addition of the protease. Cleavage assessments were based upon the property of the protease to cleave synthetic peptide substrates linked at the C-terminus to 7-Amino-4-Trifluoromethyl Coumarin (AFC) as previously described. AFC linked tripeptides, dipeptides, and monopeptides, (with a variety of permutations at P3-P1) were available from Enzyme Systems Products (Livermore, CA), and were used as the source of the subset. Following incubation of enzyme preparations overnight (18 h, 37 ° C.) with peptide in assay buffer (Citrate, pH 4.9, supplemented with 0.01 M cysteine), free AFC concentrations were measured fluorometrically (excitation […]). The proteolytic cleavage released the AFC group, which was measurable as a free molecule by a standard fluorometer and converted into molar quantities, based upon a previously established standard curve. The simplicity of AFC detection by the fluorometer was a key factor which quickened and simplified the procedures.
In the assay, 1 ug of the purified Taenia cysteine protease was added to a saturating amount of Z-Phe-Arg-AFC (4×10^−5 M) in assay buffer. The experiment was conducted in triplicate and repeated at least 5 times until we were certain that variability in AFC cleavage was not statistically significant.
Vmax was calculated for the cleavage of substrates by the purified target protease and Vmax was calculated for substrates cleaved by the crude mix protease using conventional kinetic modeling calculations already described in the art.

The test system of assay [8] is Taenia crassiceps cysts. Briefly: Short-term prophylactic protection of BALB/c mice from cysticercosis infection. The format is in vivo. The note with it: pre-injected two days, 10 T. crassiceps cysts/mouse, dosed daily four weeks, intraperitoneal; vs untreated controls. Here is the method:
FIG. 8. […] Each treated mouse was pre-injected intraperitoneally with inhibitor for two days. During treatment phase, each treated mouse received 1.48×10^−2 μg/μl of N2 daily for three weeks and every other day during the last week. Injections were carried out in 150 μl of dimethyl sulfoxide for each mouse. Both treated groups and positive controls were challenged intraperitoneally with 10 Taenia crassiceps cysts in 200 μl 0.15M PBS at the time of initial infection. After one month of infection, both groups were euthanized and cysts removed by washing with sterile 0.15M PBS. A minimum of two attached cysts were scored as multilobed (ML). […] (B) Graphically represents the effect of protease inhibitor treatment of BALB/c mice challenged with Taenia crassiceps cysts over a long-term period. Mice were divided into treated and untreated groups (5 mice/group).Each mouse in the treated group was pre-injected intraperitoneally with inhibitor for two days. […] Cysts were then counted by visual inspection. […]
Based upon the premise that the cyst wall cysteine protease may serve a critical finction to the life cycle of the Taenia cyst, we tested our most efficacious inhibitors, LLL-FMK and LLY-FMK (K-Pyr was used as a control), for their abilities to protect mice from cysticercosis infection. […] After one month, the mice were euthanized and the cysts counted. […]

Assay [9] concerns Taenia crassiceps cysts. As to the kind of experiment: Scanning electron microscopy of surfaces of cysts removed from treated mice. The format is in vivo. An excerpt:
FIG. 9. Scanning electron microscopy of the surface of cysts removed from untreated mice versus cysts removed from treated mice. Magnifications are identical for both slides in each panel. panel A (4000×). […] No immune cells were seen on cysts removed from untreated mice. Panel B (25,000×). […] Microtriches in untreated cysts can be seen to be visibly longer. Visible anchors were also noted for the untreated cysts group, whereas these anchors were not observed in microtriches from treated cysts.
For example, we hypothesized that the cysteine protease was a key parasitic molecule to allow the cyst to evade the host immune response, by cleaving host antibodies. By inhibiting the Taenia cysteine protease with Z-LLY-FMK, we hypothesized that host immunoglobulin could now bind the parasites, and initiate immunological responses (e.g., complement via IgG2a) which would cause damage to the cyst wall. […] We identified macrophages, neutrophils, fibroblasts, and collagenous deposits on the cyst surfaces from treated mice, in comparison to their absence on cysts from untreated mice. General surface atrophy was also apparent. […] Breaks in the integrity of the cyst surface were also noted for the cysts removed from treated mice. […] Cysts removed from untreated mice were characterized by no immune cells, intact and longer microtriches, and homogeneity of the cyst surface.

Read-outs that look alike come from different tables or passages of the source. Starred links: 1 amine or outer side, 2 acyl side, 3 side chain; linkers in the order of their positions; H or OH if unused. Residues, ends and D or L forms follow the SMILES beside them. *: point of attachment. AFC = O=c1cc(C(F)(F)F)c2ccc(N*)cc2o1; Suc = O=C(CCC(=O)[*:2])[*:1]; Cbz = O=C(OCc1ccccc1)*

Sequence of Cathepsin L (P07711 114-333): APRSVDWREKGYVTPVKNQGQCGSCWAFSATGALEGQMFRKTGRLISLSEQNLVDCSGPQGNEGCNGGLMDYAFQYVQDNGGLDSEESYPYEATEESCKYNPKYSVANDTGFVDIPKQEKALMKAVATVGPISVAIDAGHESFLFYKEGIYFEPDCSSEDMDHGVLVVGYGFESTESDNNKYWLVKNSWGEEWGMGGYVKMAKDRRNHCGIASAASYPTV
Sequence of Cathepsin D (P07339 65-412): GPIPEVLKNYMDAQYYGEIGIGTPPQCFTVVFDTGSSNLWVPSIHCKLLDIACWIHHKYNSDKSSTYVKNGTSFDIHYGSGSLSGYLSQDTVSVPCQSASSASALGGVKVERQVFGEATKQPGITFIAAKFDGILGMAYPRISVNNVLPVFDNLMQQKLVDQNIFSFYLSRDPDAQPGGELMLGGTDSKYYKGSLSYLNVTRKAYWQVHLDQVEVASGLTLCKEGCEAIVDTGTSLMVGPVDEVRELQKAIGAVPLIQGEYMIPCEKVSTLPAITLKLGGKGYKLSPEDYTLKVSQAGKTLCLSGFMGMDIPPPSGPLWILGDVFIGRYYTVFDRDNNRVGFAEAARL

Turning to `CC(C)C[C@H](NC(=O)[C@H]1O[C@@H]1C(=O)O)C(=O)NCCCCN=C(N)N` [E64], in assay [1], the “inhibition of cleavage of human IgG” value is “Inhibition was noted”.
`CC(C)CC(NC(=O)CCC(=O)O)C(=O)NC(Cc1ccc(O)cc1)C(=O)Nc1ccc2c(C(F)(F)F)cc(=O)oc2c1` (stereo not drawn) [Suc-Leu-Tyr-AFC] (Suc-Leu-Tyr-{AFC}; configuration not given here): the “inhibition of cleavage of human IgG” value in assay [1] is reported as “ability to inhibit”.
Take `CC(C)C[C@H](NC(=O)OCc1ccccc1)C(=O)N[C@@H](CC(C)C)C(=O)N[C@@H](CC(C)C)C(=O)Nc1ccc2c(C(F)(F)F)cc(=O)oc2c1` [Z-LLL-AFC, Z-Leu- Leu-Leu-AFC] (Cbz-Leu-Leu-Leu-{AFC}): the “Percent inhibition of Cathepsin B (cysteine)” value in [2] was 0%. Further, in [3], the “Percent inhibition of Cathepsin D (aspartic)” value is 0%. In addition, the “Percent inhibition of Cathepsin H (cysteine)” value in assay [4] was 0%. Besides, in assay [5], the “Percent inhibition of Cathepsin L (cysteine)” value worked out at 0%. Besides, the “Percent inhibition of Trypsin (serine)” value in assay [6] worked out at 0%. Moreover, the “cleavage as substrate (Vmax)” value in assay [7] is “noncleavable”.
With `CC(C)C[C@H](NC(=O)OCc1ccccc1)C(=O)N[C@@H](CC(C)C)C(=O)N[C@@H](Cc1ccc(O)cc1)C(=O)Nc1ccc2c(C(F)(F)F)cc(=O)oc2c1` [Z-LLY-AFC, Z-Leu-Leu-Tyr-AFC] (Cbz-Leu-Leu-Tyr-{AFC}), the “Percent inhibition of Cathepsin B (cysteine)” value in [2] turned out to be 0%. The “Percent inhibition of Cathepsin D (aspartic)” value in [3] is 0%. Moreover, the “Percent inhibition of Cathepsin H (cysteine)” value in [4] is 0%. Further, the “Percent inhibition of Cathepsin L (cysteine)” value in assay [5] worked out at 0%. Further, in assay [6], the “Percent inhibition of Trypsin (serine)” value came out at 0%. For the same compound, in [7], the “cleavage as substrate (Vmax)” value was “noncleavable”.
With Leu-Phe-Ketoamide-Pyridyl [K-Pyr], in assay [8], the “% Prophylactic protection of BALB/c mice” value turned out to be 40%. For the same compound, the “Immune cells observed by SEM on cyst surfaces” value in assay [9] is “None”; in assay [9] (listed as K- Pyr), “neither adherent immune cells nor damaged tegunent”.
